Assay results reported in patent US4757069A, “Pyridazodiazepine derivatives” (Hoffmann-La Roche Inc., priority 1986, dated 1988).
Counter-ions that a name gives are not always drawn.

Molecular target: T1, Angiotensin converting enzyme (rabbit lung) (Oryctolagus cuniculus, UniProt P12822)
T1 construct: Angiotensin converting enzyme (rabbit lung); from tissue; host or cells: rabbit lung
T1 sequence (P12822 34-1310): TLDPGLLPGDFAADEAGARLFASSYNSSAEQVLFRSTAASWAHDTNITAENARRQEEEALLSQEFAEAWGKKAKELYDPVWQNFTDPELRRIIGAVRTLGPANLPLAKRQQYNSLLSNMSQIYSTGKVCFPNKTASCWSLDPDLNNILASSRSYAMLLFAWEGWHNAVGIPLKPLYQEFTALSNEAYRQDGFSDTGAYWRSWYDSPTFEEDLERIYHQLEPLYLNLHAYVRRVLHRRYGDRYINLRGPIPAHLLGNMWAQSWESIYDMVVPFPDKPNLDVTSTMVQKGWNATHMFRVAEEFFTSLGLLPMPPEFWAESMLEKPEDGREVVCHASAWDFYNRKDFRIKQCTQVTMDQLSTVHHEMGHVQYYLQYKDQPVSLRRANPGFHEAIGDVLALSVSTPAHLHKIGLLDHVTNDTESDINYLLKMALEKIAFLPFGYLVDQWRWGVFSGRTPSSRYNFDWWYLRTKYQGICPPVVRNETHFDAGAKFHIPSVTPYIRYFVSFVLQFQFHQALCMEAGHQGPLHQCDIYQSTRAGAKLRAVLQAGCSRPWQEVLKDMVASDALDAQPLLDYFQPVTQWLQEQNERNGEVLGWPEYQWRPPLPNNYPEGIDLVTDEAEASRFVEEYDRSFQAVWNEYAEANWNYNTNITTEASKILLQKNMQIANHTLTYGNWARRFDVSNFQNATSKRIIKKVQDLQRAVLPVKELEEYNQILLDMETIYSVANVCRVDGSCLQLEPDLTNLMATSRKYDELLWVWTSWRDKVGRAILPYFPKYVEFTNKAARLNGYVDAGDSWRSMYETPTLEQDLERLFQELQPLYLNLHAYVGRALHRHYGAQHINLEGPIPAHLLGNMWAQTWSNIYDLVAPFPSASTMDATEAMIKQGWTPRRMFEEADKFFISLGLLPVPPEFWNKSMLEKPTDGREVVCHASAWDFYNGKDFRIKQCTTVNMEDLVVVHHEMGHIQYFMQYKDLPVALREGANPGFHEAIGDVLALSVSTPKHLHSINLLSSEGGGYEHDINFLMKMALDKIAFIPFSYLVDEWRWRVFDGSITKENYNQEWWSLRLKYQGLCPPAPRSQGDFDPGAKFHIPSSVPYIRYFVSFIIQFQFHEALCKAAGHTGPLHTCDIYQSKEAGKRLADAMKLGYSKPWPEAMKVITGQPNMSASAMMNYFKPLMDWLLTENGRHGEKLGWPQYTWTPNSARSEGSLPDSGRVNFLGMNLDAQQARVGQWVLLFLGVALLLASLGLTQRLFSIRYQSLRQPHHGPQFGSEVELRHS
Experiment: Inhibition of angiotensin-converting enzyme in vitro (conversion of angiotensin I into angiotensin II, fluorescence)
Type: biochemical
Conditions: rabbit lung ACE; 90 min preincubation at 37° C., pH 7.5; angiotensin I 250 μmol; 30 min reaction; read-out: IC50 (concentration of test substance which reduces by 50% the conversion of angiotensin I into angiotensin II)
Procedure: The activity of the present pyridazodiazepine derivatives in inhibiting angiotensin-converting enzyme in vitro can be determined using the test now described.
The method used is based on the method of Santos, R. A. S., Kreiger, E. M., and Greene L. J., Hypertension (1985), 7, 244-252. Angiotensin converting enzyme (rabbit lung) is incubated in the presence or absence of various concentrations of a test substance for 90 minutes at 37° C. in 0.1M potassium phosphate buffer, pH 7.5, containing 30 mmol of sodium chloride. If the test substance is an ester, it is cleaved by treatment with hog liver esterase prior to carrying out the test. The reaction is initiated by adding angiotensin I to a final concentration of 250 μmol. The final volume of the reaction mixture is 0.25 ml. After holding the reaction mixture at 37° C. for 30 minutes the reaction is terminated by adding 1.45 ml of 0.3M sodium hydroxide solution. […] of a 0.2% (weight/volume) solution of o-phthaldialdehyde in methanol are added and, after 10 minutes, the solution is acidified with 200 μl of 3M hydrochloric acid. The resulting solution is then subjected to fluorescence spectrometry using excitation and emission wavelengths of 365 nm and 500 nm, respectively, and the IC50 value is calculated. The IC50 is that concentration of test substance which reduces by 50% the conversion of angiotensin I into angiotensin II.

IC50: 0.6 nM
SMILES: N=C(N)Nc1ccc(CC[C@H](N[C@H]2CCCN3CCC[C@@H](C(=O)O)N3C2=O)C(=O)O)cc1 [Example 1, 9(S)-[1(S)-carboxy-3-(4-guanidinophenyl)propylamino]-octahydro-10-oxo-6H-pyridazo[1,2-a][1,2]diazepine-1(S)-carboxylic acid dihydrobromide]
